We go through 63 compounds from patent US12398111B2, “Triazine compounds and pharmaceutical use thereof” (Japan Tobacco Inc., priority 2014, dated 2025).

In the experiment the target is T1, human mPGES-1 (Homo sapiens, UniProt O14684).
T1 construct: made in house; host or cells: FreeStyle CHO-S cells (Chinese hamster ovary), transient transfection with pcDNA3.1(+)/human mPGES-1; microsome fraction used
T1 sequence (O14684 1-152): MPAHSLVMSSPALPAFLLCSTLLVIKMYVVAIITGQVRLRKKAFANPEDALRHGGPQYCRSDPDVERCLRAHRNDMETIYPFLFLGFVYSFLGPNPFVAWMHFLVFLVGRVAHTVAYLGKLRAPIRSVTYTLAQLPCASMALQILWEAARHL
Put plainly: Evaluation of human mPGES-1 enzyme inhibitory activity (PGE2 measured by HTRF, microsome fraction of CHO-S cells expressing human mPGES-1). It is filed as biochemical. The settings on record: IC50 value; microsome fraction of CHO-S cells expressing human mPGES-1, PGE2 by HTRF. In short, it runs like this: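 Enzyme source: microsomes from CHO-S cells transfected with human mPGES-1 and cultured 48 hr, diluted to 5 μg/mL protein in reduced GSH (12.5 mmol/L KPB solution). Test articles were in 0.1 mol/L potassium phosphate pH 7.4, final DMSO 2% (v/v). PGE2 formed was quantified by HTRF.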
On the technique in general: TR-FRET usually uses a lanthanide donor and a delayed reading to cut background.
In general, IC50 refers to the concentration at which inhibition is half-maximal. High values mean weaker potency in that assay, low ones greater potency in that assay. `C[C@H](Oc1cccc(Cl)c1-c1nc(O)nc(-c2ccc(C#Cc3ccccc3)cc2)n1)c1ccccn1` [Example 2-86] returned an IC50 of 2.2 nM.

The compound `CCCc1cccc(-c2nc(O)nc(-c3cc(CNC(=O)C(C)(C)C(F)(F)F)ccc3Cl)n2)c1` [Example 1-102] showed a concentration for half-maximal inhibition (IC50) of 0.9 nM. For `COC(=O)NCc1ccc(Cl)c(-c2nc(O)nc(-c3ccc(C(F)(F)F)cc3)n2)c1` [Example 1-22] the value was 2.7 nM; for `Oc1nc(-c2ccc(C#CC3CCCCC3)cc2)nc(-c2c(Cl)cccc2OCc2ccc(C(F)(F)F)cn2)n1` [Example 2-83], 51 nM. For `CC(C)(C(=O)NCc1ccc(Cl)c(-c2nc(O)nc(-c3ccc(OCCC4CC4)cc3)n2)c1)C(F)(F)F` [Example 1-167] the value was 1.9 nM; for `CCO[C@](C)(C(=O)NCc1ccc(Cl)c(-c2nc(O)nc(-c3ccccc3)n2)c1)C(F)(F)F` [Example 1-96], 81 nM; for `Cc1ccc(C#N)c(-c2nc(O)nc(-c3ccc(C#Cc4ccccc4)cc3)n2)c1` [Example 1-174], 3.1 nM. As for `CCO[C@@](C)(C(=O)N(C)Cc1ccc(Cl)c(-c2nc(O)nc(-c3ccccc3)n2)c1)C(F)(F)F` [Example 1-253], the figure is 791 nM. On to `CC(C)(C)COc1ccc(-c2nc(O)nc(-c3cc(CNCC(F)(F)F)ccc3Cl)n2)cc1` [Example 1-212], for which the concentration for half-maximal inhibition (IC50) worked out at 32 nM.

As to `CCCC(CO)(CCC)C(=O)NCc1ccc(Cl)c(-c2nc(O)nc(-c3ccccc3)n2)c1` [Example 1-259], 176 nM corresponded to half-maximal inhibition (IC50). As for `CN(Cc1ccc(Cl)c(-c2nc(O)nc(-c3ccc(OCC(C)(C)C)cc3)n2)c1)C(=O)C(C)(C)C(F)(F)F` [Example 1-196], the figure is 42 nM; as for `OCCCOc1cccc(Cl)c1-c1nc(O)nc(-c2ccc(C(F)(F)F)cc2)n1` [Example 2-23], 155 nM; as for `CC1(C)C(C(=O)NCc2ccc(Cl)c(-c3nc(O)nc(-c4ccc(OCC5CC5)cc4)n3)c2)C1(C)C` [Example 1-173], 5.4 nM. As for `CC(C)(C(=O)NCc1ccc(Cl)c(-c2nc(O)nc(-c3ccc(F)c(Cl)c3)n2)c1)C(F)(F)F` [Example 1-153], the figure is 0.5 nM; as for `O=C(NCc1ccc(Cl)c(-c2nc(O)nc(-c3ccccc3)n2)c1)C1CCCCC1` [Example 1-71], 2.5 nM. For `O=C(NCc1ccc(Cl)c(-c2nc(O)nc(-c3ccc(OCC4CC4)cc3)n2)c1)C1CCC(F)(F)CC1` [Example 1-170] the value was 1.5 nM; for `Cc1cccc(COc2cccc(C(F)(F)F)c2-c2nc(O)nc(-c3ccc(C#Cc4cccc(F)c4)cc3)n2)n1` [Example 2-116], 5.5 nM; for `COc1ccc(Cl)c(-c2nc(O)nc(-c3ccc(C(F)(F)F)cc3)n2)c1` [Example 1-6], 163 nM. For `Oc1nc(-c2ccc(C#Cc3ccccc3)cc2)nc(-c2c(OCc3ccc(F)cn3)cccc2C(F)(F)F)n1` [Example 2-115], the 50% inhibitory concentration (IC50) came to 3 nM. In turn, `CC(C)(C(=O)NCc1ccc(Cl)c(-c2nc(O)nc(-c3cccc(OC(F)(F)F)c3)n2)c1)C(F)(F)F` [Example 1-77] returned an IC50 of 0.9 nM. For `CC(=O)NCc1ccc(Cl)c(-c2nc(O)nc(-c3ccc(C(F)(F)F)cc3)n2)c1` [Example 1-16] the value was 10 nM. Regarding `CC(C)(C)OC(=O)N1CCC2(CC1)CCN(Cc1ccc(Cl)c(-c3nc(O)nc(-c4ccccc4)n3)c1)C2=O` [Example 1-265], the IC50 stood at 56 nM. For `Cc1cccc(C)c1-c1nc(O)nc(-c2ccc(F)cc2)n1` [Example 2-24] the value was 2400 nM; for `Cc1c(CNC(=O)C(C)(C)C)ccc(Cl)c1-c1nc(O)nc(-c2ccc(C(F)(F)F)cc2)n1` [Example 3-8], 1 nM. As for `CC(C)c1cccc(-c2nc(O)nc(-c3cc(CNC(=O)C(C)(C)C(F)(F)F)ccc3Cl)n2)c1` [Example 1-107], the figure is 1.2 nM; as for `CCOc1cccc(-c2nc(O)nc(-c3cc(CNC(=O)C(C)(C)C)ccc3Cl)n2)c1` [Example 1-62], 1 nM. As for `CC(C)OC(=O)NCc1ccc(Cl)c(-c2nc(O)nc(-c3cccc(C(C)(C)C)c3)n2)c1` [Example 1-83], the figure is 11 nM; as for `CC(C)(C)c1cccc(-c2nc(O)nc(-c3cc(CNC(=O)C4(C(F)(F)F)CCCC4)ccc3Cl)n2)c1` [Example 1-80], 3.1 nM; as for `Cc1cccc(COc2cccc(C(F)(F)F)c2-c2nc(O)nc(-c3ccc(C#Cc4ccc(Cl)cc4)cc3)n2)n1` [Example 2-124], 12 nM.

`CCN(Cc1ccc(Cl)c(-c2nc(O)nc(-c3ccc(OCC(C)(C)C)cc3)n2)c1)C(=O)C(C)(C)C(F)(F)F` [Example 1-235] came in with an IC50 of 70 nM. For `CC(C)C(=O)N(C)Cc1ccc(Cl)c(-c2nc(O)nc(-c3ccccc3)n2)c1` [Example 1-222] the value was 165 nM; for `Oc1nc(-c2ccc(C#Cc3ccccc3)cc2)nc(-c2c(OCc3cc(C(F)(F)F)ccn3)cccc2C(F)(F)F)n1` [Example 2-122], 15 nM.

As for `CCc1cccc(-c2nc(O)nc(-c3cc(CNC(=O)C(C)(C)C)ccc3Cl)n2)c1` [Example 1-55], the midpoint of inhibition, the IC50, lay at 1.1 nM.

The compound `CCCCc1ccc(-c2nc(O)nc(-c3cc(CNC(=O)C(C)(C)C(F)(F)F)ccc3Cl)n2)cc1` [Example 1-180] registered a half-inhibitory concentration (IC50) of 4.1 nM. `Cc1cc(-c2nc(O)nc(-c3cc(CNC(=O)C(C)(C)C(F)(F)F)ccc3Cl)n2)ccc1F` [Example 1-186] registered an IC50 of 1.4 nM. Compound `COC(C)(C)C(=O)NCc1ccc(Cl)c(-c2nc(O)nc(-c3ccccc3)n2)c1` [Example 1-53] returned an IC50 of 4.5 nM.

`Cc1ccc(Cl)c(-c2nc(O)nc(-c3ccc(C(F)(F)F)cc3)n2)c1OCc1ccccn1` [Example 3-13] returned an IC50 of 34 nM. As for `Oc1nc(-c2ccc(C#Cc3ccccn3)cc2)nc(-c2c(Cl)cccc2OCc2ccccc2)n1` [Example 2-96], the figure is 21 nM; as for `CCc1cc(-c2nc(O)nc(-c3c(C)cccc3C)n2)ccc1Cl` [Example 2-54], 170 nM; as for `COc1ccc(-c2nc(O)nc(-c3c(C)cccc3C)n2)cc1` [Example 2-27], 7700 nM. With `CC1(C)CCC(Oc2ccc(-c3nc(O)nc(-c4c(Cl)cccc4OCc4ccccn4)n3)cc2)CC1` [Example 2-84], the IC50 stood at 17 nM. For `CC(C)(C(=O)NCc1ccc(Cl)c(-c2nc(O)nc(-c3ccc(OCC4CCC4)cc3)n2)c1)C(F)(F)F` [Example 1-116] the value was 2 nM; for `CCOc1ccc(-c2nc(O)nc(-c3cc(CNC(=O)C(C)(C)C(F)(F)F)ccc3Cl)n2)cc1` [Example 1-132], 0.3 nM. As to `CC(C)S(=O)(=O)NCc1ccc(Cl)c(-c2nc(O)nc(-c3ccc(C(F)(F)F)cc3)n2)c1` [Example 1-33], inhibition was half-maximal at 0.8 nM (IC50). Compound `Cc1cccc(-c2nc(O)nc(-c3cc(CNC(=O)C(C)(C)C(F)(F)F)ccc3Cl)n2)c1` [Example 1-111] showed an IC50 of 1.2 nM. For `NC(=O)c1ccc(Cl)c(-c2nc(O)nc(-c3ccc(OCC4CC4)cc3)n2)c1` [Example 1-193] the value was 8700 nM; for `CCCC(=O)N(C)Cc1ccc(Cl)c(-c2nc(O)nc(-c3ccccc3)n2)c1` [Example 1-225], 4200 nM.

Turning to `CN(Cc1ccc(Cl)c(-c2nc(O)nc(-c3ccccc3)n2)c1)C(=O)C(C)(C)C(F)(F)F` [Example 1-220], the 50% inhibitory concentration (IC50) was 16 nM. As for `CC1(C)CN(Cc2ccc(Cl)c(-c3nc(O)nc(-c4ccccc4)n3)c2)C1=O` [Example 1-236], the figure is 263 nM; as for `CC(C)(C)C(=O)NCc1ccc(Cl)c(-c2nc(O)nc(-c3ccccc3)n2)c1` [Example 1-43], 2 nM; as for `O=C(NCc1ccc(Cl)c(-c2nc(O)nc(-c3ccccc3)n2)c1)C1(C(F)(F)F)CCC1` [Example 1-70], 0.7 nM. The compound `CC(C)(C)C(=O)NCc1ccc(Cl)c(-c2nc(O)nc(-c3ccc(OC(F)(F)F)cc3)n2)c1` [Example 1-60] came in with a half-maximal inhibitory concentration (IC50) of 0.4 nM. `CN(C)C(=O)OCc1ccc(Cl)c(-c2nc(O)nc(-c3ccc(OCC4CC4)cc3)n2)c1` [Example 1-190]: it took 47 nM to reach half-maximal inhibition (IC50). For `CC(C)(C(=O)NCc1ccc(Cl)c(-c2nc(O)nc(-c3ccc(OC4CCC4)cc3)n2)c1)C(F)(F)F` [Example 1-141] the value was 1.1 nM; for `CC(C)(C(=O)NCc1ccc(Cl)c(-c2nc(O)nc(-c3ccccc3)n2)c1)C(F)(F)F` [Example 1-69], 0.3 nM. Compound `COc1ccc(C#Cc2ccc(-c3nc(O)nc(-c4c(OCc5cccc(C)n5)cccc4C(F)(F)F)n3)cc2)cc1` [Example 2-126] registered an IC50 of 4.6 nM. For `O=C(NCc1ccc(Cl)c(-c2nc(O)nc(-c3ccc(OCC4CC4)cc3)n2)c1)C1(C(F)(F)F)CC1` [Example 1-163] the value was 1 nM. As for `Cc1cccc(COc2cccc(Cl)c2-c2nc(O)nc(-c3ccc(C(F)(F)F)cc3)n2)c1` [Example 2-55], the figure is 10 nM; as for `CCC(CC)C(=O)N(C)Cc1ccc(Cl)c(-c2nc(O)nc(-c3ccccc3)n2)c1` [Example 1-233], 848 nM. As for `NCc1ccc(Cl)c(-c2nc(O)nc(-c3ccc(C(F)(F)F)cc3)n2)c1` [Example 1-17], the figure is 735 nM; as for `Cc1ccccc1C#Cc1ccc(-c2nc(O)nc(-c3c(OCc4ccccn4)cccc3C(F)(F)F)n2)cc1` [Example 2-100], 5.6 nM; as for `CC(C)(C)COc1ccc(-c2nc(O)nc(-c3c(Cl)cccc3OCc3ccccn3)n2)cc1` [Example 2-62], 9.3 nM. On to `CC(C)CCOc1ccc(-c2nc(O)nc(-c3cc(CNC(=O)C(C)(C)C(F)(F)F)ccc3Cl)n2)cc1` [Example 1-114], for which the 50% inhibitory concentration (IC50) is 5.9 nM.
